This passage reports IC50 results from patent US20260070945A1, “MACROCYCLIC IMMUNOMODULATORS” (Bristol-Myers Squibb Company, priority 2022, published 2026).

Structures are written as SMILES. pIC50: −log10 of the molar value. *1 amine or outer side, *2 acyl side, *3 side chain or, on linkers, in order; H or OH if unused. Where a SMILES comes first, the peptide text is derived from it. Bridges are numbered along the chain shown (N, C = ends). [ ]: non-standard residue; d: D form. The star is where a group is joined. ξ: configuration not given here. Phe(4-COOH) = N[C@@H](Cc1ccc(C(=O)O)cc1)C(=O)O; Bip = N[C@@H](Cc1ccc(-c2ccccc2)cc1)C(=O)O; Phe(3-Me) = Cc1cccc(C[C@H](N)C(=O)O)c1; γGlu = O=C(O)[C@H](CCC(=O)[*:2])N[*:1]; hArg = N=C(N)NCCCC[C@H](N)C(=O)O; 4Pal = N[C@@H](Cc1ccncc1)C(=O)O; Cha = N[C@@H](CC1CCCCC1)C(=O)O; Thr(3ξ) = CC(O)[C@H](N)C(=O)O; NMeNle = CCCC[C@H](NC)C(=O)O; 12Ado = NCCCCCCCCCCCC(=O)O; dDab = NCC[C@@H](N)C(=O)O; β3hS = N[C@@H](CO)CC(=O)O; Carboxymethyl = O=C(O)C*; NMeA = CN[C@@H](C)C(=O)O; Orn = NCCC[C@H](N)C(=O)O; Aun = NCCCCCCCCCCC(=O)O; Dab = NCC[C@H](N)C(=O)O; Abu = CC[C@H](N)C(=O)O; AEEA = NCCOCCOCC(=O)O

For the test, the target named is T1, PD-1/PD-L1 interaction (PE-labeled human PD-L1-Ig binding to Jurkat cell line over-expressing human PD-1) (Homo sapiens, UniProt Q15116).
T1 construct: expressed in transfected cells; host or cells: Jurkat
T1 sequence (Q15116 25-288): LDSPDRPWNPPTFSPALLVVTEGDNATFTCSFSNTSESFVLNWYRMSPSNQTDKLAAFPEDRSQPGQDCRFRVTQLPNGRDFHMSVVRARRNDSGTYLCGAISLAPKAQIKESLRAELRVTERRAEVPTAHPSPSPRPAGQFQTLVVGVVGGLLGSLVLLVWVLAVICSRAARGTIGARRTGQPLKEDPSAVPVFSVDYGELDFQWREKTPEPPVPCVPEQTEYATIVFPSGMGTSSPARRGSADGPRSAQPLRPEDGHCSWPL
Nature of the test: Jurkat-PD-1 Cell Binding High-Content Screening Assay (CBA). To be noted: Jurkat-hPD-1 cells, PE-labeled PD-L1-Ig 20 nM final; read-out: Jurkat HPD1 PDL1 IC50. The gist of the method: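 High-content imaging read-out of PE-PD-L1-Ig binding (20 nM final, 1 h) to Jurkat-hPD-1 cells, after 2 h compound exposure at 37 °C in DMEM with 10% FCS. Nuclei counterstained with Hoechst 33342 after paraformaldehyde fixation.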
By pIC50 is commonly meant −log10 of the IC50, conventionally taken in molar units. Consider `CC(C)C[C@H]1NC(=O)[C@H](C)N(C)C(=O)[C@H](C(C)C)NC(=O)[C@H](Cc2ccc(-c3ccccc3)cc2)NC(=O)[C@H](C(C)C)NC(=O)[C@H](Cc2c[nH]c3ccccc23)NC(=O)[C@H](CC(=O)O)NC(=O)[C@H](Cc2ccc(C(=O)O)cc2)NC(=O)[C@H](Cc2ccc(OCC(=O)O)cc2)NC(=O)CSC[C@@H](C(=O)N[C@@H](CCCN)C(=O)NCCOCCOCC(=O)NCCCCCCCCCCC(=O)O)NC(=O)[C@H](CO)NC(=O)[C@H](C(C)C)NC(=O)[C@H](CC2CCCCC2)NC(=O)[C@H](CCN)NC1=O` [Example 2110] ({CH2CO}-Y(Carboxymethyl)[Phe(4-COOH)]DWV[Bip]V[NMeA][dL][Dab][Cha]VSC[Orn][AEEA][Aun]-OH; thioether N-14), for which the pIC50 is 7.77. In the case of `CC(C)C[C@H]1NC(=O)[C@H](C)N(C)C(=O)[C@H](C(C)C)NC(=O)[C@H](Cc2ccc(-c3ccccc3)cc2)NC(=O)[C@H](C(C)C)NC(=O)[C@H](Cc2c[nH]c3ccccc23)NC(=O)[C@H](CC(=O)O)NC(=O)[C@H](CCCCNC(=N)N)NC(=O)[C@H](Cc2ccc(OCC(=O)O)cc2)NC(=O)CSC[C@@H](C(=O)N[C@@H](CCCN)C(=O)NCCOCCOCC(=O)NCCCCCCCCCCC(=O)O)NC(=O)[C@H](C(C)O)NC(=O)[C@H](C(C)C)NC(=O)[C@H](CC2CCCCC2)NC(=O)[C@H](CCN)NC1=O` (stereo partly drawn) [Example 2111] ({CH2CO}-Y(Carboxymethyl)[hArg]DWV[Bip]V[NMeA][dL][Dab][Cha]V[Thr(3ξ)]C[Orn][AEEA][Aun]-OH; thioether N-14) it was 7.52; in that of `CC(C)C[C@H]1NC(=O)[C@H](C)N(C)C(=O)[C@H](C(C)C)NC(=O)[C@H](Cc2ccc(-c3ccccc3)cc2)NC(=O)[C@H](C(C)C)NC(=O)[C@H](Cc2c[nH]c3ccccc23)NC(=O)[C@H](CC(=O)O)NC(=O)[C@H](Cc2ccc(C(=O)O)cc2)NC(=O)[C@H](Cc2ccc(OCC(=O)O)cc2)NC(=O)CSC[C@@H](C(=O)N[C@@H](CCCCN)C(=O)NCCOCCOCC(=O)NCCCCCCCCCCC(=O)O)NC(=O)[C@H](CO)NC(=O)[C@H](C(C)C)NC(=O)[C@H](CC2CCCCC2)NC(=O)[C@@H](CCN)NC1=O` [Example 2112] ({CH2CO}-Y(Carboxymethyl)[Phe(4-COOH)]DWV[Bip]V[NMeA][dL][dDab][Cha]VSCK[AEEA][Aun]-OH; thioether N-14), 7.41; in that of `CCCC[C@H]1C(=O)N[C@H](CC(C)C)C(=O)N[C@@H](CCN)C(=O)N[C@@H](CC2CCCCC2)C(=O)N[C@@H](C(C)C)C(=O)N[C@@H](C(C)O)C(=O)N[C@H](C(=O)N[C@@H](CCCN)C(=O)NCCOCCOCC(=O)NCCCCCCCCCCC(=O)O)CSCC(=O)N[C@@H](Cc2ccncc2)C(=O)N[C@@H](Cc2ccc(OCC(=O)O)cc2)C(=O)N[C@@H](CC(=O)O)C(=O)N[C@@H](Cc2c[nH]c3ccccc23)C(=O)N[C@@H](C(C)C)C(=O)N[C@@H](Cc2ccc(-c3ccccc3)cc2)C(=O)N[C@@H](CC(C)C)C(=O)N1C` (stereo partly drawn) [Example 2114] ({CH2CO}-[4Pal]Y(Carboxymethyl)DWV[Bip]L[NMeNle][dL][Dab][Cha]V[Thr(3ξ)]C[Orn][AEEA][Aun]-OH; thioether N-14), 6.99. Regarding `CCCC[C@H]1C(=O)N[C@H](CC(C)C)C(=O)N[C@@H](CCN)C(=O)N[C@@H](CC2CCCCC2)C(=O)N[C@@H](C(C)C)C(=O)N[C@@H](C(C)O)C(=O)N[C@H](C(=O)N[C@@H](CCCCN)C(=O)NCCOCCOCC(=O)NCCCCCCCCCCC(=O)O)CSCC(=O)N[C@@H](Cc2ccncc2)C(=O)N[C@@H](Cc2ccc(OCC(=O)O)cc2)C(=O)N[C@@H](CC(=O)O)C(=O)N[C@@H](Cc2c[nH]c3ccccc23)C(=O)N[C@@H](C(C)C)C(=O)N[C@@H](Cc2ccc(-c3ccccc3)cc2)C(=O)N[C@@H](CC(C)C)C(=O)N1C` (stereo partly drawn) [Example 2115] ({CH2CO}-[4Pal]Y(Carboxymethyl)DWV[Bip]L[NMeNle][dL][Dab][Cha]V[Thr(3ξ)]CK[AEEA][Aun]-OH; thioether N-14), the pIC50 is 6.57. With `CC(C)C[C@H]1NC(=O)[C@H](C)N(C)C(=O)[C@H](C(C)C)NC(=O)[C@H](Cc2ccc(-c3ccccc3)cc2)NC(=O)[C@H](C(C)C)NC(=O)[C@H](Cc2c[nH]c3ccccc23)NC(=O)[C@H](CC(=O)O)NC(=O)[C@H](Cc2ccncc2)NC(=O)[C@H](Cc2ccc(OCC(=O)O)cc2)NC(=O)CSC[C@@H](C(=O)N[C@@H](CCCCN)C(=O)NCCCCCCCCCCC(=O)O)NC(=O)C[C@H](CO)NC(=O)[C@H](C(C)C)NC(=O)[C@H](CC2CCCCC2)NC(=O)[C@H](CCN)NC1=O` [Example 2116] ({CH2CO}-Y(Carboxymethyl)[4Pal]DWV[Bip]V[NMeA][dL][Dab][Cha]V[β3hS]CK[Aun]-OH; thioether N-14), the pIC50 is 7.20. As to `CC(C)C[C@H]1NC(=O)[C@H](C)N(C)C(=O)[C@H](C(C)C)NC(=O)[C@H](Cc2ccc(-c3ccccc3)cc2)NC(=O)[C@H](C(C)C)NC(=O)[C@H](Cc2c[nH]c3ccccc23)NC(=O)[C@H](CC(=O)O)NC(=O)[C@H](Cc2ccncc2)NC(=O)[C@H](Cc2ccc(OCC(=O)O)cc2)NC(=O)CSC[C@@H](C(=O)N[C@@H](CCN)C(=O)NCCOCCOCC(=O)NCCCCCCCCCCCC(=O)O)NC(=O)[C@H](CO)NC(=O)[C@H](C(C)C)NC(=O)[C@H](CC2CCCCC2)NC(=O)[C@H](CCN)NC1=O` [Example 2117] ({CH2CO}-Y(Carboxymethyl)[4Pal]DWV[Bip]V[NMeA][dL][Dab][Cha]VSC[Dab][AEEA][12Ado]-OH; thioether N-14), the pIC50 is 7.52. Turning to `CC(C)C[C@H]1NC(=O)[C@H](C)N(C)C(=O)[C@H](C(C)C)NC(=O)[C@H](Cc2ccc(-c3ccccc3)cc2)NC(=O)[C@H](C(C)C)NC(=O)[C@H](Cc2c[nH]c3ccccc23)NC(=O)[C@H](CC(=O)O)NC(=O)[C@H](Cc2ccc(OCC(=O)O)cc2)NC(=O)[C@H](Cc2ccncc2)NC(=O)CSC[C@@H](C(=O)N[C@@H](CCN)C(=O)NCCOCCOCC(=O)N[C@@H](CCC(=O)NCCOCCOCC(=O)N[C@@H](CCCCN)C(=O)NCCCCCCCCCCCC(=O)O)C(=O)O)NC(=O)[C@H](CO)NC(=O)[C@H](C(C)C)NC(=O)[C@H](CC2CCCCC2)NC(=O)[C@H](CCN)NC1=O` [Example 2118] ({CH2CO}-[4Pal]Y(Carboxymethyl)DWV[Bip]V[NMeA][dL][Dab][Cha]VSC[Dab][AEEA][γGlu][AEEA]K[12Ado]-OH; thioether N-14), the negative-log IC50 (pIC50) is 7.84. In the case of `CC(C)C[C@@H]1NC(=O)[C@H](Cc2c[nH]c3ccccc23)NC(=O)[C@H](CC(=O)O)NC(=O)[C@H](Cc2ccc(OCC(=O)O)cc2)NC(=O)[C@H](CCCCNC(=N)N)NC(=O)CSC[C@@H](C(=O)NCC(=O)N[C@@H](CCN)C(=O)NCCCCCCCCCCC(=O)O)NC(=O)[C@H](CO)NC(=O)[C@H](C(C)C)NC(=O)[C@H](CC2CCCCC2)NC(=O)[C@H](CCN)NC(=O)[C@@H](CC(C)C)NC(=O)[C@H](C)N(C)C(=O)[C@H](C(C)C)NC(=O)[C@H](Cc2ccc(-c3ccccc3)cc2)NC1=O` [Example 2120] ({CH2CO}-[hArg]Y(Carboxymethyl)DWL[Bip]V[NMeA][dL][Dab][Cha]VSCG[Dab][Aun]-OH; thioether N-14), the pIC50 is 7.75. In the case of `CC(C)C[C@@H]1NC(=O)[C@H](Cc2c[nH]c3ccccc23)NC(=O)[C@H](CC(=O)O)NC(=O)[C@H](Cc2ccc(OCC(=O)O)cc2)NC(=O)[C@H](CCCCNC(=N)N)NC(=O)CSC[C@@H](C(=O)NCC(=O)N[C@@H](CCCN)C(=O)NCCCCCCCCCCCC(=O)O)NC(=O)[C@H](CO)NC(=O)[C@H](C(C)C)NC(=O)[C@H](CC2CCCCC2)NC(=O)[C@H](CCN)NC(=O)[C@@H](CC(C)C)NC(=O)[C@H](C)N(C)C(=O)[C@H](C(C)C)NC(=O)[C@H](Cc2ccc(-c3ccccc3)cc2)NC1=O` [Example 2121] ({CH2CO}-[hArg]Y(Carboxymethyl)DWL[Bip]V[NMeA][dL][Dab][Cha]VSCG[Orn][12Ado]-OH; thioether N-14) it was 7.71; in that of `Cc1cccc(C[C@@H]2NC(=O)[C@H](CC(=O)O)NC(=O)[C@H](Cc3ccc(OCC(=O)O)cc3)NC(=O)[C@H](CCCCNC(=N)N)NC(=O)CSC[C@@H](C(=O)N[C@@H](CO)C(=O)NCCOCCOCC(=O)N[C@@H](CCCN)C(=O)NCCCCCCCCCCCC(=O)O)NC(=O)[C@H](CO)NC(=O)[C@H](C(C)C)NC(=O)[C@H](CC3CCCCC3)NC(=O)[C@H](CCN)NC(=O)[C@@H](CC(C)C)NC(=O)[C@H](C)N(C)C(=O)[C@H](C(C)C)NC(=O)[C@H](Cc3ccc(-c4ccccc4)cc3)NC(=O)[C@H](CC(C)C)NC2=O)c1` [Example 2122] ({CH2CO}-[hArg]Y(Carboxymethyl)D[Phe(3-Me)]L[Bip]V[NMeA][dL][Dab][Cha]VSCS[AEEA][Orn][12Ado]-OH; thioether N-14), 7.80. For `CC(C)C[C@@H]1NC(=O)[C@H](Cc2c[nH]c3ccccc23)NC(=O)[C@H](CC(=O)O)NC(=O)[C@H](Cc2ccc(OCC(=O)O)cc2)NC(=O)[C@H](CCCCNC(=N)N)NC(=O)CSC[C@@H](C(=O)NCC(=O)NCCOCCOCC(=O)N[C@@H](CCCN)C(=O)NCCCCCCCCCCCC(=O)O)NC(=O)[C@H](CO)NC(=O)[C@H](C(C)C)NC(=O)[C@H](CC2CCCCC2)NC(=O)[C@H](CCN)NC(=O)[C@@H](CC(C)C)NC(=O)[C@H](C)N(C)C(=O)[C@H](C(C)C)NC(=O)[C@H](Cc2ccc(-c3ccccc3)cc2)NC1=O` [Example 2123] ({CH2CO}-[hArg]Y(Carboxymethyl)DWL[Bip]V[NMeA][dL][Dab][Cha]VSCG[AEEA][Orn][12Ado]-OH; thioether N-14), the pIC50 is 7.94. Consider `CC[C@@H]1NC(=O)[C@H](C(C)C)NC(=O)[C@H](CC2CCCCC2)NC(=O)[C@H](CCN)NC(=O)[C@@H](CC(C)C)NC(=O)[C@H](C)N(C)C(=O)[C@H](C(C)C)NC(=O)[C@H](Cc2ccc(-c3ccccc3)cc2)NC(=O)[C@H](CC(C)C)NC(=O)[C@H](Cc2c[nH]c3ccccc23)NC(=O)[C@H](CC(=O)O)NC(=O)[C@H](Cc2ccc(OCC(=O)O)cc2)NC(=O)[C@H](CCCCNC(=N)N)NC(=O)CSC[C@@H](C(=O)NCC(=O)NCCOCCOCC(=O)N[C@@H](CCCN)C(=O)NCCCCCCCCCCCC(=O)O)NC1=O` [Example 2124] ({CH2CO}-[hArg]Y(Carboxymethyl)DWL[Bip]V[NMeA][dL][Dab][Cha]V[Abu]CG[AEEA][Orn][12Ado]-OH; thioether N-14), for which the pIC50 was 7.77.
